Measured values taken from US20250313535A1, “ALPHA 4 BETA 7 INTEGRIN MODULATORS AND USES THEREOF” (DICE MOLECULES SV, INC., priority 2022, published 2025).
pIC50: −log10 of the molar value.

How the values were obtained:
[1] = molecular target: α4β7 integrin (Homo sapiens (Human), UniProt P13612+P26010); experiment: Integrin Adhesion Assay: Protocol 4 (MAdCAM-coated plate, RPMI-8866 cells with stable LOF mutation of the ITGB1 gene); format: cell-based; conditions: Protocol 4; RPMI-8866 cells with LOF mutation of ITGB1, MAdCAM; read-out: Mean IC50 α4β7 KO
Procedure, shortened: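 RPMI-8866 cells with CRISPR/Cas9 knockout of ITGB1 (2×10^6/mL) were added to MAdCAM-coated wells with compound (1% DMSO) in HEPES/NaCl buffer with 1 mM MnCl2, 0.1 mM CaCl2 and 1% BSA, then incubated 1 h at 37 °C. After four washes, adherent cells were quantified by CellTiter-Glo luminescence. Percent inhibition versus DMSO and control compound was fitted to 4-parameter curves.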

[2] = molecular target: α4β1 integrin (Homo sapiens (Human), UniProt P05556+P13612); experiment: Integrin Adhesion Assay: Protocol 5 (VCAM-coated plate, RPMI-8866 cells with stable LOF mutation of the ITGB7 gene); format: cell-based; conditions: Protocol 5; RPMI-8866 cells with LOF mutation of ITGB7, VCAM; read-out: Mean IC50 α4β1 KO
Procedure, shortened: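 RPMI-8866 B cells with CRISPR/Cas9 ITGB7 knockout (clonal, verified by flow cytometry) adhered to VCAM-coated wells for 1 h at 37° C in HEPES/NaCl buffer with 1 mM MnCl2, 0.1 mM CaCl2, 1% BSA, 1% DMSO. Bound cells quantified by CellTiter-Glo luminescence after washing; % inhibition versus DMSO and control, 4-parameter fit.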

α4β7 integrin, sequence (P13612 34-1032): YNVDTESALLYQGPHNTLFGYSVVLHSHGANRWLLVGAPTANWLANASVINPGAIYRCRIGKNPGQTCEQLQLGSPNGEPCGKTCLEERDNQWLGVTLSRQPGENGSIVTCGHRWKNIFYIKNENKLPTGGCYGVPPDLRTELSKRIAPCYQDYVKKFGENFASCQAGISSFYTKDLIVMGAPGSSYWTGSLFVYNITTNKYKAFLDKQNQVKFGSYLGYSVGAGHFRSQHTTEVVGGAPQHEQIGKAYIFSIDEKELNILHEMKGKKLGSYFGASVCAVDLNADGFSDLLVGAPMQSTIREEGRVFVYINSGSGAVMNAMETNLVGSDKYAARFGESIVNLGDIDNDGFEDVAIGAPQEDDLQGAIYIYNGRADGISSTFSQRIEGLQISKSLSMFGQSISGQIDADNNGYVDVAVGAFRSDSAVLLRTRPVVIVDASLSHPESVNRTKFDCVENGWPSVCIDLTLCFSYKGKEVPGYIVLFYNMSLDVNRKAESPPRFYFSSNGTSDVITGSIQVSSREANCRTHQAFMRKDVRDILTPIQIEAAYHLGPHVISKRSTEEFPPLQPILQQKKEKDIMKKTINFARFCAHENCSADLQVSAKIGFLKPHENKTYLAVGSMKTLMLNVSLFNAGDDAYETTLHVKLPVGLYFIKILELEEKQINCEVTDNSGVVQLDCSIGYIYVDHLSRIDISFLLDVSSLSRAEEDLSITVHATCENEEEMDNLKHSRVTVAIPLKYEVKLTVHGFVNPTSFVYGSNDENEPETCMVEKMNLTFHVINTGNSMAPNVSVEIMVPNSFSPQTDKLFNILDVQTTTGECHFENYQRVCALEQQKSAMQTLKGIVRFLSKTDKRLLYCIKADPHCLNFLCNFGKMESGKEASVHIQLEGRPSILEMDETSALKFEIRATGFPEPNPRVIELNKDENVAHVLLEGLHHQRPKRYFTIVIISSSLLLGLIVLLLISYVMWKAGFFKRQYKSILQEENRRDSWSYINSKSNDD
α4β7 integrin, sequence (P26010 20-798): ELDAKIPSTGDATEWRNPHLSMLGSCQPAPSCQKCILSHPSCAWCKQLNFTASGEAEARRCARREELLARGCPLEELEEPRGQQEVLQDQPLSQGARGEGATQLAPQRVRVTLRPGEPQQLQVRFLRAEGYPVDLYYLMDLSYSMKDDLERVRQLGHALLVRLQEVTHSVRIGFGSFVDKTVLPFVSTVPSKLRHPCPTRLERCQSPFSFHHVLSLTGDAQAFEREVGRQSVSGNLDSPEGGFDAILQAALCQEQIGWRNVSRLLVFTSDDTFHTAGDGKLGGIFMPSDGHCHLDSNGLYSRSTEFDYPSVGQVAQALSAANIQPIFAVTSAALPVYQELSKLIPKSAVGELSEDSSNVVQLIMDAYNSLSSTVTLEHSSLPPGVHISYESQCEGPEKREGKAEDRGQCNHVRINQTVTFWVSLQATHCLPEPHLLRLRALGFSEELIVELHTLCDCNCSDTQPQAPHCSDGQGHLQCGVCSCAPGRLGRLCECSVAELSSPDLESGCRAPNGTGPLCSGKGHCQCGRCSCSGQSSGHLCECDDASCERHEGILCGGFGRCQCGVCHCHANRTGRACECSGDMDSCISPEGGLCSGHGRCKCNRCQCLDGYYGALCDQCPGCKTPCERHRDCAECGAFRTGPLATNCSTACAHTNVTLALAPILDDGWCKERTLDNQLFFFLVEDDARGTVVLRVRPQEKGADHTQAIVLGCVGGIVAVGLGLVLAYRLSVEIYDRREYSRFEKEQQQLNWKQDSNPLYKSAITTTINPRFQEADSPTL
α4β1 integrin, sequence (P13612 34-1032): as the sequence (P13612 34-1032) above
α4β1 integrin, sequence (P05556 21-798): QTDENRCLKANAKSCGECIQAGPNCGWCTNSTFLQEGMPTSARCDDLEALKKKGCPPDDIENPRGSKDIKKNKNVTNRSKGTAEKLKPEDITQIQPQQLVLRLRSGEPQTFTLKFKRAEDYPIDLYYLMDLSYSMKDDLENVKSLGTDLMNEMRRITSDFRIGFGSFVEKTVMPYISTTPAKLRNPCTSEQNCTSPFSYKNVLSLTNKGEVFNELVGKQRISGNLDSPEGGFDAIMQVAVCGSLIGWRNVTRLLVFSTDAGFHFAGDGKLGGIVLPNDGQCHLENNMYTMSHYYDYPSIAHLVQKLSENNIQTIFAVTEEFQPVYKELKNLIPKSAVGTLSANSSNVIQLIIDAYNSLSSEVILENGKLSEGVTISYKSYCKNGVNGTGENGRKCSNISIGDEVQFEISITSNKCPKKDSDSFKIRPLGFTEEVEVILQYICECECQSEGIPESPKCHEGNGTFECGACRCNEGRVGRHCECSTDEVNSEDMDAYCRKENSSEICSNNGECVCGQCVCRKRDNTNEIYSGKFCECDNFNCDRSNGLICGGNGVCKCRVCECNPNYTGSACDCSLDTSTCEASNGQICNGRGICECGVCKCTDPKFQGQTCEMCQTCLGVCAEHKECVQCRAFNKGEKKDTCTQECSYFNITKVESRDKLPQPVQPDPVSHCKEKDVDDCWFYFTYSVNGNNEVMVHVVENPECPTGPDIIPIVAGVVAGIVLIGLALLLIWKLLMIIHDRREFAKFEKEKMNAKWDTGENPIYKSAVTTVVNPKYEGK

SMILES	pIC50 [1]	pIC50 [2]
CC1(C)CCCN(Cc2cnc(-c3cccc4c(C[C@H](NC(=O)C5(C(F)(F)F)CCN(CC(F)(F)F)CC5)C(=O)O)cccc34)c3ccccc23)CC1 [Compound 876]	> 8.00	< 6.00
O=C(O)[C@H](Cc1cccc2c(-c3ncc(CN4CCOCC4)c4ccccc34)cccc12)NC(=O)C1(C(F)(F)F)CCN(CC(F)F)CC1 [Compound 878]	> 8.00	6.00 to 7.00
O=C(O)[C@H](Cc1cccc2c(-c3ncc(CN4CCC5(CC4)CC5)c4ccccc34)cccc12)NC(=O)C1(C(F)(F)F)CCN(CC(F)(F)F)CC1 [Compound 883]	> 8.00	< 6.00
O=C(O)[C@H](Cc1cccc2c(-c3ncc(CN4C5CCCC4CC5)c4ccccc34)cccc12)NC(=O)C1(C(F)(F)F)CCN(CC(F)(F)F)CC1 [Compound 884]	> 8.00	< 6.00
O=C(O)[C@H](Cc1cccc2c(-c3ncc(CN4CC5CC(C5)C4)c4ccccc34)cccc12)NC(=O)C1(C(F)(F)F)CCN(CC(F)(F)F)CC1 [Compound 885]	> 8.00	< 6.00
O=C(O)[C@H](Cc1cccc2c(-c3ncc(CN4CCC5(CCC5)C4)c4ccccc34)cccc12)NC(=O)C1(C(F)(F)F)CCN(CC(F)(F)F)CC1 [Compound 886]	> 8.00	< 6.00
O=C(O)[C@H](Cc1cccc2c(-c3ncc(CN4CC5(CC5)C4)c4ccccc34)cccc12)NC(=O)C1(C(F)(F)F)CCN(CC(F)(F)F)CC1 [Compound 887]	> 8.00	< 6.00
O=C(O)[C@H](Cc1cccc2c(-c3ncc(CN4CCCCC4)c4ccccc34)cccc12)NC(=O)C1(C(F)(F)F)CCN(CC(F)F)CC1 [Compound 888]	> 8.00	< 6.00
O=C(O)[C@H](Cc1cccc2c(-c3cc(C(F)(F)F)c(CN4CCCCC4)cn3)cccc12)NC(=O)C1(C(F)(F)F)CCN(CC(F)(F)F)CC1 [Compound 891]	6.00 to 7.00	< 6.00
C[C@@H]1CN(Cc2cnc(-c3cccc4c(C[C@H](NC(=O)C5(C(F)(F)F)CCN(CC(F)(F)F)CC5)C(=O)O)cccc34)c3ccccc23)C[C@H](C)N1C1CC1 [Compound 892]	> 8.00	6.00 to 7.00
C[C@@H]1CN(Cc2cnc(-c3cccc4c(C[C@H](NC(=O)C5(C(F)(F)F)CCN(CC(F)(F)F)CC5)C(=O)O)cccc34)c3ccccc23)C[C@H](C)N1 [Compound 893]	> 8.00	6.00 to 7.00
O=C(O)[C@H](Cc1cccc2c(-c3ncc(CN4CCN(C5CC5)CC4)c4ccccc34)cccc12)NC(=O)C1(C(F)(F)F)CCN(CC(F)F)CC1 [Compound 901]	> 8.00	6.00 to 7.00
O=C(O)[C@H](Cc1cccc2c(-c3ccc(CN4CCCCC4)cn3)cccc12)NC(=O)C1(C(F)(F)F)CCN(CC(F)(F)F)CC1 [Compound 903]	7.00 to 8.00	< 6.00
O=C(O)[C@H](Cc1cccc2c(-c3ncc(CN4CCCC5(CC5)C4)c4ccccc34)cccc12)NC(=O)C1(C(F)(F)F)CCN(CC(F)(F)F)CC1 [Compound 904]	> 8.00	6.00 to 7.00
O=C(O)[C@H](Cc1cccc2c(-c3ncc(CN4CC5CC(C5)C4)c4ccccc34)cccc12)NC(=O)C1(C(F)(F)F)CCN(CC(F)F)CC1 [Compound 907]	> 8.00	< 6.00
O=C(O)[C@H](Cc1cccc2c(-c3ncc(CN4CC5(CC5)C4)c4ccccc34)cccc12)NC(=O)C1(C(F)(F)F)CCN(CC(F)F)CC1 [Compound 908]	> 8.00	6.00 to 7.00
O=C(O)[C@H](Cc1cccc2c(-c3ncc(CN4CCC5(CCC5)C4)c4ccccc34)cccc12)NC(=O)C1(C(F)(F)F)CCN(CC(F)F)CC1 [Compound 909]	> 8.00	6.00 to 7.00
CC1(C)CCCN(Cc2cnc(-c3cccc4c(C[C@H](NC(=O)C5(C(F)(F)F)CCN(CC(F)F)CC5)C(=O)O)cccc34)c3ccccc23)C1 [Compound 910]	> 8.00	< 6.00
O=C(O)[C@H](Cc1cccc2c(-c3ncc(CN4C5CCCC4CC5)c4ccccc34)cccc12)NC(=O)C1(C(F)(F)F)CCN(CC(F)F)CC1 [Compound 911]	> 8.00	< 6.00
O=C(O)[C@H](Cc1cccc2c(-c3ncc(CN4CCC5(CC4)CC5)c4ccccc34)cccc12)NC(=O)C1(C(F)(F)F)CCN(CC(F)F)CC1 [Compound 912]	> 8.00	< 6.00
O=C(O)[C@H](Cc1cccc2c(-c3ncc(CN4CCOCC45CC5)c4ccccc34)cccc12)NC(=O)C1(C(F)(F)F)CCN(CC(F)F)CC1 [Compound 914]	> 8.00	6.00 to 7.00
O=C(O)[C@H](Cc1cccc2c(-c3ncc(CN4CCCC(F)(F)CC4)c4ccccc34)cccc12)NC(=O)C1(C(F)(F)F)CCN(CC(F)F)CC1 [Compound 915]	> 8.00	< 6.00
CC1(C)CCCN(Cc2cnc(-c3cccc4c(C[C@H](NC(=O)C5(C(F)(F)F)CCN(CC(F)F)CC5)C(=O)O)cccc34)c3ccccc23)CC1 [Compound 916]	> 8.00	6.00 to 7.00
O=C(O)[C@H](Cc1cccc2c(-c3ncc(CN4CCCC4)c4ccccc34)cccc12)NC(=O)C1(C(F)(F)F)CCN(CC(F)F)CC1 [Compound 917]	> 8.00	6.00 to 7.00
O=C(O)[C@H](Cc1cccc2c(-c3ncc(CN4CCCC4)c4ccccc34)cccc12)NC(=O)C1(C(F)(F)F)CCN(CC(F)(F)F)CC1 [Compound 918]	> 8.00	< 6.00
O=C(O)[C@H](Cc1cccc2c(-c3ncc(CN4CCC4)c4ccccc34)cccc12)NC(=O)C1(C(F)(F)F)CCN(CC(F)(F)F)CC1 [Compound 919]	> 8.00	< 6.00
O=C(O)[C@H](Cc1cccc2c(-c3ncc(CN4CCC4)c4ccccc34)cccc12)NC(=O)C1(C(F)(F)F)CCN(CC(F)F)CC1 [Compound 920]	> 8.00	< 6.00
CN(C)Cc1cnc(-c2cccc3c(C[C@H](NC(=O)C4(C(F)(F)F)CCN(CC(F)(F)F)CC4)C(=O)O)cccc23)c2ccccc12 [Compound 921]	> 8.00	6.00 to 7.00
CN(Cc1cnc(-c2cccc3c(C[C@H](NC(=O)C4(C(F)(F)F)CCN(CC(F)(F)F)CC4)C(=O)O)cccc23)c2ccccc12)CC(F)F [Compound 922]	7.00 to 8.00	< 6.00

Results, then the molecule that gave them:

pIC50 [1]	pIC50 [2]	SMILES
7.00 to 8.00	< 6.00	O=C(O)[C@H](Cc1cccc2c(-c3ncc(CN4CCC(C(F)(F)F)CC4)c4ccccc34)cccc12)NC(=O)C1(C(F)(F)F)CCN(CC(F)F)CC1 [Compound 879]
> 8.00	< 6.00	Cc1cc(CN2CCCCC2)cnc1-c1cccc2c(C[C@H](NC(=O)C3(C(F)(F)F)CCN(CC(F)(F)F)CC3)C(=O)O)cccc12 [Compound 880]
7.00 to 8.00	< 6.00	O=C(O)[C@H](Cc1cccc2c(-c3ncc(CN4CCCCC4)cc3C(F)(F)F)cccc12)NC(=O)C1(C(F)(F)F)CCN(CC(F)(F)F)CC1 [Compound 881]
> 8.00	6.00 to 7.00	O=C(O)[C@H](Cc1cccc2c(-c3ncc(CN4CCCCC4)cc3C3CC3)cccc12)NC(=O)C1(C(F)(F)F)CCN(CC(F)(F)F)CC1 [Compound 882]
> 8.00	< 6.00	COc1cc(CN2CCC(C)(C)CC2)cnc1-c1cccc2c(C[C@H](NC(=O)C3(C(F)(F)F)CCN(CC(F)(F)F)CC3)C(=O)O)cccc12 [Compound 890]
> 8.00	6.00 to 7.00	CC(C)Oc1cc(CN2CCCCC2)cnc1-c1cccc2c(C[C@H](NC(=O)C3(C(F)(F)F)CCN(CC(F)(F)F)CC3)C(=O)O)cccc12 [Compound 894]
7.00 to 8.00	< 6.00	O=C(O)[C@H](Cc1cccc2c(-c3ccc(CN4CCCCC4)cn3)cccc12)NC(=O)C1(C(F)(F)F)CCN(CC(F)F)CC1 [Compound 896]
> 8.00	< 6.00	O=C(O)[C@H](Cc1cccc2c(-c3ncc(CN4CCCCC4)cc3C3CC3)cccc12)NC(=O)C1(C(F)(F)F)CCN(CC(F)F)CC1 [Compound 898]
> 8.00	< 6.00	Cc1cc(CN2CCC(C(F)(F)F)CC2)cnc1-c1cccc2c(C[C@H](NC(=O)C3(C(F)(F)F)CCN(C4COC4)CC3)C(=O)O)cccc12 [Compound 900]
> 8.00	< 6.00	Cc1cc(CN2CCC(C)(C)CC2)cnc1-c1cccc2c(C[C@H](NC(=O)C3(C(F)(F)F)CCN(CC(F)F)CC3)C(=O)O)cccc12 [Compound 902]
> 8.00	< 6.00	O=C(O)[C@H](Cc1cccc2c(-c3ncc(CN4CCC(F)CC4)c4ccccc34)cccc12)NC(=O)C1(C(F)(F)F)CCN(CC(F)F)CC1 [Compound 905]
> 8.00	< 6.00	COc1cc(CN2CCC(C)(C)CC2)cnc1-c1cccc2c(C[C@H](NC(=O)C3(C(F)(F)F)CCN(CC(F)F)CC3)C(=O)O)cccc12 [Compound 924]
> 8.00	< 6.00	COc1cc(CN2CCC(C(F)(F)F)CC2)cnc1-c1cccc2c(C[C@H](NC(=O)C3(C(F)(F)F)CCN(CC(F)F)CC3)C(=O)O)cccc12 [Compound 925]
> 8.00	< 6.00	CC1CCN(Cc2cnc(-c3cccc4c(C[C@H](NC(=O)C5(C(F)(F)F)CCN(CC(F)F)CC5)C(=O)O)cccc34)c3ccccc23)CCC1(F)F (stereo partly shown) [Compound 926]
> 8.00	6.00 to 7.00	COc1ccc(CN2CCC(F)(F)CC2)cc1-c1cccc2c(C[C@H](NC(=O)C3(C(F)(F)F)CCN(CC(F)F)CC3)C(=O)O)cccc12 [Compound 927]
